The values below are quoted from earlier work in patent publication US8987322B2, “Pharmaceutical formulations for carrier-mediated transport statins and uses thereof” (Circ Pharma Research and Development Limited, priority 2003, dated 2015).

A value given as a limit tells only on which side of the number the result lay.

Assay in series [1]: not given
This is another data set of the same source.

Assay in series [2]: not given
The source holds these as a separate data set.

Another series concerns rat hepatocytes. As to conditions: White (2002), read-out: IC50, inhibition of sterol synthesis.
The target in another series is T1, HMG-CoA reductase (Homo sapiens, UniProt P04035).
T1 sequence (P04035 1-888): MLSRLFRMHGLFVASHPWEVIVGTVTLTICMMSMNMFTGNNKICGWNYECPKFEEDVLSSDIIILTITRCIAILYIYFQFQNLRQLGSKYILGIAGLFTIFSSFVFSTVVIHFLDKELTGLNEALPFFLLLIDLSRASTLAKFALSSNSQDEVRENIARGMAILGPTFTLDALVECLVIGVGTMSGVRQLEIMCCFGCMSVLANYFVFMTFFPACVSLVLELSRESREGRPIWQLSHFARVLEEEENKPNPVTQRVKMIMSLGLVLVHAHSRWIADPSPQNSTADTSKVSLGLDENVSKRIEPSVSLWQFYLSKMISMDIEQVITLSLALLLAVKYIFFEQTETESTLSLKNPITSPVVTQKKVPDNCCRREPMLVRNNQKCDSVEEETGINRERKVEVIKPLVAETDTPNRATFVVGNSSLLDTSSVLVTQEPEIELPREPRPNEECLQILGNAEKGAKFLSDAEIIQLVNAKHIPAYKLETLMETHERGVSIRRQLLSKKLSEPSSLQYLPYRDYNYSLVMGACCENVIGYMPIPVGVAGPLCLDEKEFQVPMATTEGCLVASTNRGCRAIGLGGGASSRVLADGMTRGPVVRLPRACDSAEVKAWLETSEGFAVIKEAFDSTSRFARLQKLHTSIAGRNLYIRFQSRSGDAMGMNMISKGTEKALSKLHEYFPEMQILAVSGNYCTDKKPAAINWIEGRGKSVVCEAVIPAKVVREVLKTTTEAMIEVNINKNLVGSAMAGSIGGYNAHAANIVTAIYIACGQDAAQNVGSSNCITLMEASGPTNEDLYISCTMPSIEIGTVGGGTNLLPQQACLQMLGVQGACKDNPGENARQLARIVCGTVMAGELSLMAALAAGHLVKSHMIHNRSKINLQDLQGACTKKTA

For series [3] the following is noted: like that found in the stomach.
Series [4] deals with LDL-C, HDL-C and triglyceride levels. As to conditions: Malinowski (1998).

As to `CC(C)c1nc(N(C)S(C)(=O)=O)nc(-c2ccc(F)cc2)c1/C=C/[C@@H](O)C[C@@H](O)CC(=O)O` (single isomer, unassigned) [rosuvastatin], the “water solubility class as defined in the U.S. Pharmacopeia (2002)” value was “sparingly soluble (“sparingly soluble” refers to an aqueous solubility that ranges from about 1/30 to about 1/100 (mg/ml))”. The “adverse effect at high doses” value in series [1] (80 mg and higher, phase III clinical trials) is on record as “associated with myopathy”. In addition, the tolerability in humans result in series [1] (doses ranging from 1 to 40 mg) was “well tolerated”. Besides, in series [2] (Cheng-Lai (2003)), the “clearance through biliary excretion” value is on record as 90% and the “excreted in the urine” value is on record as 10%. Besides, the “hepatic extraction (share of the absorbed dose extracted by the liver)” value in series [2] (Igel et al. (2002)) is on record as “up to 90%”. Also, in series [2] (doses ranging from 5 to 80 mg), the “dose dependence of Cmax and AUC” value is “relatively linear relationship”. Further, the “elimination half-life (t1/2)” value in series [2] (in vivo) is 20 h. Also, the “effect of food on absorption” value in series [2] (presence of food) was “overall extent of absorption remains constant”. Further, in the series on rat hepatocytes, the IC50 (as a rule, the concentration at which inhibition is half-maximal) is 160 pM. Moreover, the “share of the inhibitory activity due to the parent compound” value on HMG-CoA reductase (White (2002)) is reported as 90%. Besides, in series [3], the “stability in an acidic environment” value is recorded as “stable in acidic environments”.

As to `CC(C)c1c(C(=O)Nc2ccccc2)c(-c2ccccc2)c(-c2ccc(F)cc2)n1CC[C@@H](O)C[C@@H](O)CC(=O)O` [atorvastatin], in series [2] (first-pass), the “fraction of drug absorbed from the intestine taken up by the liver” value was at least 70%. Further, in series [2] (oral), the “fraction of orally administered drug absorbed from the intestine” value is recorded as “about 30%”; the “systemic availability of active inhibitors (parent drug and its metabolites)” value is recorded as 30%. Further, the “reduction of LDL-C levels” value in series [4] is recorded as 40-60%. Moreover, the “share of atorvastatin's inhibitory activity accounted for by its o-hydroxylated and p-hydroxylated metabolites” value at HMG-CoA reductase is given as “approximately 70%”. In addition, the “duration of HMG-CoA reductase inhibition” value on HMG-CoA reductase (due to the inhibitory activity of metabolites) is 20 to 30 h.

Turning to `CC[C@H](C)C(=O)O[C@H]1C[C@H](O)C=C2C=C[C@H](C)[C@H](CC[C@@H](O)C[C@@H](O)CC(=O)O)[C@H]21` [pravastatin], in series [3], the “stability in an acidic environment” value is recorded as “unstable in an acidic environment”.
